Results reported in ChEMBL document CHEMBL3046319, “PCR-RFLP detection of the E198A mutation conferring resistance to benzimidazoles in field isolates of Monilinia laxa from Greece” (Crop Prot, 2012).
≈ marks a conversion by molar mass, not a printed value. Calls of active or inactive are those of the source. The calls are words filed in the database; no cut-off is given here.

What was measured:
Monilinia laxa [1] = experiment: Fungicidal activity against Monilinia laxa isolate MLAl8 assessed as reduction in mycelial growth rate at 25 degC after 4 days; assay type: functional, organism-based; conditions: isolate MLAl8, 96 h
Monilinia laxa [2] = experiment: Fungicidal activity against Monilinia laxa isolate MLK10 assessed as reduction in mycelial growth rate at 1 to 10 ug/ml at 31 degC after 5 days; assay type: functional, organism-based
Monilinia laxa [3] = experiment: Fungicidal activity against Monilinia laxa isolate MLK9 assessed as reduction in mycelial growth rate at 1 to 10 ug/ml at 31 degC after 5 days; assay type: functional, organism-based
Monilinia laxa [4] = experiment: Fungicidal activity against Monilinia laxa isolate MLK7 assessed as reduction in mycelial growth rate at 1 to 10 ug/ml at 31 degC after 5 days; assay type: functional, organism-based
Monilinia laxa [5] = experiment: Fungicidal activity against Monilinia laxa isolate MLK6 assessed as reduction in mycelial growth rate at 1 to 10 ug/ml at 31 degC after 5 days; assay type: functional, organism-based
Monilinia laxa [6] = experiment: Fungicidal activity against Monilinia laxa isolate MLK2 assessed as reduction in mycelial growth rate at 1 to 10 ug/ml at 31 degC after 5 days; assay type: functional, organism-based
Monilinia laxa [7] = experiment: Fungicidal activity against Monilinia laxa isolate MLKS1 assessed as reduction in mycelial growth rate at 1 to 10 ug/ml at 31 degC after 5 days; assay type: functional, organism-based
Monilinia laxa [8] = experiment: Fungicidal activity against Monilinia laxa isolate MLG5 assessed as reduction in mycelial growth rate at 1 to 10 ug/ml at 31 degC after 5 days; assay type: functional, organism-based
Monilinia laxa [9] = experiment: Fungicidal activity against Monilinia laxa isolate MLG4 assessed as reduction in mycelial growth rate at 1 to 10 ug/ml at 31 degC after 5 days; assay type: functional, organism-based
Monilinia laxa [10] = experiment: Fungicidal activity against Monilinia laxa isolate MLG3 assessed as reduction in mycelial growth rate at 1 to 10 ug/ml at 31 degC after 5 days; assay type: functional, organism-based
Monilinia laxa [11] = experiment: Fungicidal activity against Monilinia laxa isolate MLG1 assessed as reduction in mycelial growth rate at 1 to 10 ug/ml at 31 degC after 5 days; assay type: functional, organism-based
Monilinia laxa [12] = experiment: Fungicidal activity against Monilinia laxa isolate MLP4 assessed as mean number of conidia produced in the colony at 25 degC after 12 days by haemocytometer; assay type: functional
Monilinia laxa [13] = experiment: Fungicidal activity against Monilinia laxa isolate MLP2 assessed as mean number of conidia produced in the colony at 25 degC after 12 days by haemocytometer; assay type: functional
Monilinia laxa [14] = experiment: Fungicidal activity against Monilinia laxa isolate MLX1 assessed as mean mycelial colony diameter at 25 degC after 4 days; assay type: functional
Monilinia laxa [15] = experiment: Fungicidal activity against Monilinia laxa isolate MLX5 assessed as mean mycelial colony diameter at 25 degC after 4 days; assay type: functional
Monilinia laxa [16] = experiment: Fungicidal activity against Monilinia laxa isolate MLX5 assessed as reduction in mycelial growth rate at 1 to 10 ug/ml at 28 degC after 8 days; assay type: functional, organism-based
Monilinia laxa [17] = experiment: Fungicidal activity against Monilinia laxa isolate MLX3 assessed as reduction in mycelial growth rate at 1 to 10 ug/ml at 28 degC after 8 days; assay type: functional, organism-based
Monilinia laxa [18] = experiment: Fungicidal activity against Monilinia laxa isolate MLX1 assessed as reduction in mycelial growth rate at 1 to 10 ug/ml at 28 degC after 8 days; assay type: functional, organism-based
Monilinia laxa [19] = experiment: Fungicidal activity against Monilinia laxa isolate MLP7 assessed as reduction in mycelial growth rate at 1 to 10 ug/ml at 28 degC after 8 days; assay type: functional, organism-based
Monilinia laxa [20] = experiment: Fungicidal activity against Monilinia laxa isolate MLG4 assessed as reduction in mycelial growth rate at 25 degC after 4 days; assay type: functional, organism-based; conditions: isolate MLG4, 96 h
Monilinia laxa [21] = experiment: Fungicidal activity against Monilinia laxa isolate MLG1 assessed as reduction in mycelial growth rate at 25 degC after 4 days; assay type: functional, organism-based; conditions: isolate MLG1, 96 h
Monilinia laxa [22] = experiment: Fungicidal activity against Monilinia laxa isolate KX5 assessed as reduction in mycelial growth rate at 1 to 10 ug/ml at 25 to 28 degC; assay type: functional, organism-based
Monilinia laxa [23] = experiment: Fungicidal activity against Monilinia laxa isolate KX4 assessed as reduction in mycelial growth rate at 1 to 10 ug/ml at 25 to 28 degC; assay type: functional, organism-based
Monilinia laxa [24] = experiment: Fungicidal activity against Monilinia laxa isolate MLP7 assessed as reduction in mycelial growth rate at 1 to 10 ug/ml at 25 to 28 degC; assay type: functional, organism-based
Monilinia laxa [25] = experiment: Fungicidal activity against Monilinia laxa isolate MLK6 assessed as reduction in mycelial growth rate at 1 to 10 ug/ml at 25 to 28 degC; assay type: functional, organism-based
Monilinia laxa [26] = experiment: Fungicidal activity against Monilinia laxa isolate MLBO2 assessed as mycelial growth at 1 ug/ml at 25 degC after 4 days; assay type: functional
Monilinia laxa [27] = experiment: Fungicidal activity against Monilinia laxa isolate MLKS1 assessed as reduction in mycelial growth rate at 25 degC after 4 days; assay type: functional, organism-based; conditions: isolate MLKS1, 96 h
Monilinia laxa [28] = experiment: Fungicidal activity against Monilinia laxa isolate MLBO6 assessed as reduction in mycelial growth rate at 1 to 10 ug/ml at 31 degC after 5 days; assay type: functional, organism-based
Monilinia laxa [29] = experiment: Fungicidal activity against Monilinia laxa isolate MLBO5 assessed as reduction in mycelial growth rate at 1 to 10 ug/ml at 31 degC after 5 days; assay type: functional, organism-based
Monilinia laxa [30] = experiment: Fungicidal activity against Monilinia laxa isolate KX5 assessed as reduction in mycelial growth rate at 25 degC after 4 days; assay type: functional, organism-based; conditions: isolate KX5, 96 h
Monilinia laxa [31] = experiment: Fungicidal activity against Monilinia laxa isolate KX4 assessed as reduction in mycelial growth rate at 25 degC after 4 days; assay type: functional, organism-based; conditions: isolate KX4, 96 h
Monilinia laxa [32] = experiment: Fungicidal activity against Monilinia laxa isolate MLC2 assessed as virulence in prune fruits assessed as virulence treated 10 min prior to mycelial inoculation at 24 degC after 10 days relative to isolate MLX1by pathogenicity bioassay; assay type: functional
Monilinia laxa [33] = experiment: Fungicidal activity against Monilinia laxa isolate MLG1 in prune fruits assessed as virulence treated 10 min prior to mycelial inoculation at 24 degC after 10 days relative to isolate MLX1by pathogenicity bioassay; assay type: functional
Monilinia laxa [34] = experiment: Fungicidal activity against Monilinia laxa isolate B1 assessed as reduction in mycelial growth rate at 1 to 10 ug/ml at 31 degC after 5 days; assay type: functional, organism-based
Monilinia laxa [35] = experiment: Fungicidal activity against Monilinia laxa isolate MLB1 assessed as reduction in mycelial growth rate at 1 to 10 ug/ml at 31 degC after 5 days; assay type: functional, organism-based
Monilinia laxa [36] = experiment: Fungicidal activity against Monilinia laxa isolate MLNS1 assessed as reduction in mycelial growth rate at 25 degC after 4 days; assay type: functional, organism-based; conditions: isolate MLNS1, 96 h
Monilinia laxa [37] = experiment: Fungicidal activity against Monilinia laxa isolate MLX3 assessed as reduction in mycelial growth rate at 25 degC after 4 days; assay type: functional, organism-based; conditions: isolate MLX3, 96 h
Monilinia laxa [38] = experiment: Fungicidal activity against Monilinia laxa isolate MLK10 assessed as reduction in mycelial growth rate at 25 degC after 4 days; assay type: functional, organism-based; conditions: isolate MLK10, 96 h
Monilinia laxa [39] = experiment: Fungicidal activity against Monilinia laxa isolate MLK8 assessed as reduction in mycelial growth rate at 25 degC after 4 days; assay type: functional, organism-based; conditions: isolate MLK8, 96 h
Monilinia laxa [40] = experiment: Fungicidal activity against Monilinia laxa isolate MLK5 assessed as reduction in mycelial growth rate at 25 degC after 4 days; assay type: functional, organism-based; conditions: isolate MLK5, 96 h
Monilinia laxa [41] = experiment: Fungicidal activity against Monilinia laxa isolate MLK4 assessed as reduction in mycelial growth rate at 25 degC after 4 days; assay type: functional, organism-based; conditions: isolate MLK4, 96 h
Monilinia laxa [42] = experiment: Fungicidal activity against Monilinia laxa isolate MLK2 assessed as reduction in mycelial growth rate at 25 degC after 4 days; assay type: functional, organism-based; conditions: isolate MLK2, 96 h

SMILES: COC(=O)Nc1nc2ccccc2[nH]1 [CARBENDAZIM]
- EC50 (Monilinia laxa [1]): > 50 µg/mL
- inhibition (Monilinia laxa [2]): Active
- inhibition (Monilinia laxa [3]): Active
- inhibition (Monilinia laxa [4]): Active
- inhibition (Monilinia laxa [5]): Active
- inhibition (Monilinia laxa [6]): Active
- inhibition (Monilinia laxa [7]): Active
- inhibition (Monilinia laxa [8]): Active
- inhibition (Monilinia laxa [9]): Active
- inhibition (Monilinia laxa [10]): Active
- inhibition (Monilinia laxa [11]): Active
- Activity (Monilinia laxa [12]): 3.98 /cm2
- Activity (Monilinia laxa [13]): 4.15 /cm2
- Activity (Monilinia laxa [14]): 31.25 mm
- Activity (Monilinia laxa [15]): 28.3 mm
- inhibition (Monilinia laxa [16]): inactive
- inhibition (Monilinia laxa [17]): inactive
- inhibition (Monilinia laxa [18]): inactive
- inhibition (Monilinia laxa [19]): inactive
- EC50 (Monilinia laxa [20]): 0.11 µg/mL (≈ 0.575 µM)
- EC50 (Monilinia laxa [21]): 0.1 µg/mL (≈ 0.523 µM)
- inhibition (Monilinia laxa [22]): inactive
- inhibition (Monilinia laxa [23]): inactive
- inhibition (Monilinia laxa [24]): inactive
- inhibition (Monilinia laxa [25]): inactive
- Activity (Monilinia laxa [26]): 0%
- EC50 (Monilinia laxa [27]): 0.11 µg/mL (≈ 0.575 µM)
- inhibition (Monilinia laxa [28]): Active
- inhibition (Monilinia laxa [29]): Active
- EC50 (Monilinia laxa [30]): > 50 µg/mL
- EC50 (Monilinia laxa [31]): > 50 µg/mL
- Activity (Monilinia laxa [32]): 98.52%
- Activity (Monilinia laxa [33]): 100%
- inhibition (Monilinia laxa [34]): Active
- inhibition (Monilinia laxa [35]): Active
- EC50 (Monilinia laxa [36]): > 50 µg/mL
- EC50 (Monilinia laxa [37]): > 50 µg/mL
- EC50 (Monilinia laxa [38]): 0.07 µg/mL (≈ 0.366 µM)
- EC50 (Monilinia laxa [39]): 0.09 µg/mL (≈ 0.471 µM)
- EC50 (Monilinia laxa [40]): > 50 µg/mL
- EC50 (Monilinia laxa [41]): > 50 µg/mL
- EC50 (Monilinia laxa [42]): > 50 µg/mL
